# Results: article PMC11369432, “Study on the uptake of Gastrodin in the liver” (Heliyon, 2024)
# Several values for one entry are separate records, joined by “and”; a condition that tells them apart may be missing. Equal values may be shown once. Where a name gives a salt, the structure may show the parent alone.
# Tests used:
# OATPs [1] = experiment: Check of the OATPs inhibitor in rats with BSP as substrate; format: in vivo; conditions: dose of 30 mg kg^−1, ELISA
# Excerpt: (§1) Selecting suitable substrates and inhibitors of OATPs and OCTs is crucial for the experiment. Therefore, our team also used OATPs and OCTs inhibitors. Based on the relevant literature, metformin hydrochloride was selected as the substrate of OCTs, and sodium sulfobromophthalide (BSP) was selected as the substrate of OATPs. […] Most of the previous studies used RIF as an inhibitor of OATPs and epinephrine as an inhibitor of OCTs. We detected drug concentration in blood samples and in the liver of rats. The concentration of metformin hydrochloride was detected by HPLC, and BSP was measured by enzyme-linked immunosorbent assay (ELISA).
# [2] = Gastrodin plasma and liver concentrations and Kp in rats, control group (no inhibitor); format: in vivo, Sprague-Dawley (SD) rats
# Excerpt: (§2) The transporters involved in liver transport mainly include organic anion transport peptides (Oatps) and organic cation transporters (Octs), and these two transporters are most expressed in the liver. Therefore, this study chose Oatps and Octs as the research objects. Transport proteins affect drug efficacy and toxicity, the liver is the main organ for the metabolism of substances. […] Using the method of rats in vivo, and choose organic anion transfer peptide Oatps and organic cation transporter Octs inhibitors for the probe, after the transporters are suppressed, intravenous drip Gastrodine, drug concentrations reach homeostasis in blood drug concentration, drug absorption rate and elimination rate balance, illustrate the liver intake transporters saturated. Using HPLC determination of drug concentration in liver and blood at this time the ratio of the Kp (Kp = Css/Css drug concentration of liver blood drug concentration), and under normal circumstances (i.e., without giving inhibitors) compared to Kp, if Kp decrescent, namely that the drug transporters of the substrate. This study explore the intrinsic relationship between the uptake of Gastrodin in rat liver and the organic anion transport peptide Oatps and organic cation transporter Octs, thus preliminarily elucidating the molecular mechanism of Gastrodin uptake in the liver, provide theoretical basis for the safety of clinical combination therapy [[10], [11], [12]].
# (§3) The use of experimental animals was approved by the Ethics Committee of Southwest University (Chongqing, China). We strictly followed the National and Institutional guidelines for animal protection and welfare. In total, 18 adult male Sprague-Dawley (SD) rats (SPF, weight: 150 ± 20g) were obtained from the Center of Experimental Animals, Sichuan Province People's Hospital. The rats were kept at room temperature (25 °C) with free access to food and water. They were allowed to adapt to the new environment for one week before starting induction and treatment. Following acclimatization, the experimental rats were randomly divided into three groups (n = 6) as follows: Control group (treated with Gastrodin), ADR group (treated with Gastrodin and adrenalone), and RIF group (treated with Gastrodin and rifampicin).
# (§4) To clarify the role of hepatic transport proteins, the concentration of Gastrodin chosen for this experiment was 569 mg kg^−1 (converted from the concentration in mice: rat dose (mg·kg^−1) = mouse dose (mg·kg^−1)/1.44), based on the results of previous studies. An equal dose of Gastrodin was injected before intravenous drip as a loading dose, to ensure that the steady-state blood concentration (Css) of Gastrodin was reached and the transporter protein was saturated by 300 min of intravenous drip. Then, the volume of Gastrodin was computed according to the following formula: drop volume = drop speed (4 μL h^−1 g^−1) × time × weight.
# (§5) Gastrodin solution: 1138.9 mg of Gastrodin extract was added to a 10 mL volumetric flask. Physiological saline was added and diluted to prepare a solution with a concentration of 113.89 mg mL^−1. Then, the solution was frozen and stored (administered at 1 mL·200g ^−1 i.v.).
# (§6) The rats were fasted for 12 h before the experiment. They had free access to water. The rats were regularly weighed before the initiation of the experiment. The control group first received Gastrodin solution (569 mg kg^−1) through the caudal vein as a loading dose, followed by the caudal injection of a Gastrodin solution (569 mg kg^−1) at a rate of 4 μg h^−1·g^−1. Each rat of the RIF group was given rifampicin 2 mL·200 g^−1 via oral gavage and 1h later 569 mg kg^−1 of Gastrodin was injected. Likewise, the ADR group was injected with adrenalone (0.5 mL·200 g^−1) via the caudal vein, and 0.5 h later 569 mg kg^−1 of Gastrodin was injected. […]
# OATPs [3] = experiment: Hepatic uptake of Gastrodin in rats after the OATPs inhibitor rifampicin (RIF group); format: in vivo, Sprague-Dawley (SD) rats
# Excerpt: as §2, §3, §4, §5
# Rifampicin (RIF) solution: 90 mg of rifampicin was precisely weighed. Then, 30 mL saline was added to prepare 3 mg mL^−1 solution (administered at 2 mL·200 g ^−1 i.g.).
# as §6, with “injected.” for “injected. Likewise, the ADR group was injected with adrenalone (0.5 mL·200 g^−1) via the caudal vein, and 0.5 h later 569 mg kg^−1 of Gastrodin was injected.”
# OCTs [4] = experiment: Hepatic uptake of Gastrodin in rats after the OCTs inhibitor adrenalone (ADR group); format: in vivo, Sprague-Dawley (SD) rats
# Excerpt: as §2, §3, §4, §5
# Adrenalone (ADR) solution: 64 mg of […] was weighed precisely and prepared at 8 mg mL^−1 concentration (administered at 0.5 mL·200 g^−1 i.v.) using 30 % PEG400 as solvent.
# as §6, with “injected.” for “injected. Likewise, the ADR group was injected with adrenalone (0.5 mL·200 g^−1) via the caudal vein, and 0.5 h later 569 mg kg^−1 of Gastrodin was injected.”
# [5] = Stability of Gastrodin solution (room temperature, repeated freeze-thaw); format: physicochemical; conditions: Gastrodin solution stored at −20 °C
# Method: To verify whether the sample processing and detection methods were stable, we examined both their room temperature stability and their repeated freeze-thaw stability.
# Three solutions containing 50 mg mL^−1, 100 mg mL^1, and 500 mg mL^−1 of Gastrodin were first prepared and stored at room temperature. This was then measured every 6 h. Finally, the RSD was calculated, which was examined for its room temperature stability.
# Three solutions of the same concentration were prepared as described above and tested immediately after preparation. They were then stored at −20 °C for 21 h, removed to allow thawing, and left at room temperature for 3 h before assay. The test was continued at a low temperature and the RSD was calculated after repeating the assay three times to investigate its repeated freeze-thaw stability.
# [6] = parameters: method as in doi:10.4103/pm.pm_307_19; conditions: mice, different doses; conforms to a two-compartment model; cited from earlier work
# OCTs [7] = experiment: Check of the OCTs inhibitor in rats with metformin hydrochloride as substrate; format: in vivo
# Excerpt: as §1
structure (smiles),measurement,setting,value
"CO[C@H]1/C=C/O[C@@]2(C)Oc3c(C)c(O)c4c(O)c(c(/C=N/N5CCN(C)CC5)c(O)c4c3C2=O)NC(=O)/C(C)=C\C=C\[C@H](C)[C@H](O)[C@@H](C)[C@@H](O)[C@@H](C)[C@H](OC(C)=O)[C@@H]1C [RIF, rifampicin]",Hepatic transport of OATPs in rats,OATPs [1],inhibited
"OCc1ccc(O[C@@H]2O[C@H](CO)[C@@H](O)[C@H](O)[C@H]2O)cc1 [GAS, hydroxyl methyl benzene - beta - D - pyran glucoside]",KP (liver / blood concentration),"[2]; Control group, single rats, 300 min",0.2918 and 0.2172 and 0.0618 and 0.3204 and 0.0919
same,"Plasma concentration of GAS, 90min","[2]; Control group, single rats, Gastrodin 569 mg kg^−1 i.v. loading dose plus i.v. drip, 90 min",418.6414 µg/mL and 490.4070 µg/mL and 858.0713 µg/mL and 839.0300 µg/mL and 374.1060 µg/mL and 714.8180 µg/mL
same,"Plasma concentration of GAS, 180min","[2]; Control group, single rats, Gastrodin 569 mg kg^−1 i.v. loading dose plus i.v. drip, 180 min",296.4502 µg/mL and 450.2900 µg/mL and 241.1238 µg/mL and 473.1890 µg/mL and 388.0036 µg/mL and 943.8820 µg/mL
same,"Plasma concentration of GAS, 300min","[2]; Control group, single rats, Gastrodin 569 mg kg^−1 i.v. loading dose plus i.v. drip, 300 min",160.2300 µg/mL and 435.3740 µg/mL and 690.0752 µg/mL and 482.2634 µg/mL and 537.2563 µg/mL and 961.3480 µg/mL
same,Liver concentration of GAS,"[2]; Control group, single rats, liver taken at 300 min",46.7539 µg/mL and 94.5472 µg/mL and 42.6760 µg/mL and 154.5100 µg/mL and 49.3480 µg/mL and 165.2782 µg/mL
same,Kp at 300 min,"[2]; male, Sprague-Dawley, rat, liver / blood, intravenous, 569 mg kg^−1, Control group, n = 6",0.14 ± 0.127
same,KP (liver / blood concentration),"OATPs [3]; RIF group, single rats, 300 min",0.0695 and 0.1237 and 0.0037 and 0.0044 and 0.0041 and 0.0042
same,Liver concentration of GAS,"OATPs [3]; RIF group, single rats, liver taken at 300 min",143.4890 µg/mL and 54.8940 µg/mL and 33.3675 µg/mL and 48.7120 µg/mL and 41.0071 µg/mL and 101.5434 µg/mL
same,"Plasma concentration of GAS, 90min","OATPs [3]; RIF group, single rats, rifampicin 2 mL·200 g^−1 i.g. 1 h before Gastrodin 569 mg kg^−1, 90 min",30828.4900 µg/mL and 1684.7620 µg/mL and 8505.0480 µg/mL and 15559.1500 µg/mL and 79163.4800 µg/mL and 26044.6400 µg/mL
same,"Plasma concentration of GAS, 180min","OATPs [3]; RIF group, single rats, rifampicin i.g. 1 h before Gastrodin 569 mg kg^−1, 180 min",13840.5600 µg/mL and 8435.3490 µg/mL and 24589.4100 µg/mL and 8312.9910 µg/mL and 20131.4400 µg/mL and 4501.0340 µg/mL
same,"Plasma concentration of GAS, 300min","OATPs [3]; RIF group, single rats, rifampicin i.g. 1 h before Gastrodin 569 mg kg^−1, 300 min",2063.3640 µg/mL and 8969.1250 µg/mL and 10985.5800 µg/mL and 9971.0380 µg/mL and 23912.4400 µg/mL
same,Substrate of OATPs,"OATPs [3]; concluded from lower KP after OATPs inhibitor, rat in vivo",likely substrate
same,Kp at 300 min,"OATPs [3]; male, Sprague-Dawley, rat, liver / blood, intravenous, RIF group, n = 6, *p < 0.05 vs Control",0.035 ± 0.0508
same,concentration at 300 min,"OATPs [3]; male, Sprague-Dawley, rat, plasma, intravenous, RIF group, single rats, rifampicin i.g. 1 h before Gastrodin 569 mg kg^−1, 300 min, read-out: Plasma concentration of GAS, 300min",444 µg/mL
same,KP (liver / blood concentration),"OCTs [4]; ADR group, single rats, 300 min",0.0645 and 0.0324 and 0.0463 and 0.0716 and 0.0447 and 0.1550
same,"Plasma concentration of GAS, 90min","OCTs [4]; ADR group, single rats, adrenalone 0.5 mL·200 g^−1 i.v. 0.5 h before Gastrodin 569 mg kg^−1, 90 min",617.7201 µg/mL and 10576.3600 µg/mL and 1294.1160 µg/mL and 1093.5800 µg/mL and 3877.7610 µg/mL
same,"Plasma concentration of GAS, 180min","OCTs [4]; ADR group, single rats, adrenalone i.v. 0.5 h before Gastrodin 569 mg kg^−1, 180 min",650.1415 µg/mL and 3246.9130 µg/mL and 497.0489 µg/mL and 1215.3470 µg/mL and 1883.7120 µg/mL
same,"Plasma concentration of GAS, 300min","OCTs [4]; ADR group, single rats, adrenalone i.v. 0.5 h before Gastrodin 569 mg kg^−1, 300 min",2255.8310 µg/mL and 2303.3090 µg/mL and 659.0208 µg/mL and 643.2905 µg/mL and 1871.4590 µg/mL
same,Liver concentration of GAS,"OCTs [4]; ADR group, single rats, liver taken at 300 min",25.4541 µg/mL and 73.1891 µg/mL and 106.5988 µg/mL and 47.2096 µg/mL and 28.7519 µg/mL and 290.1262 µg/mL
same,Substrate of OCTs,"OCTs [4]; concluded from lower KP after OCTs inhibitor, rat in vivo",likely substrate
same,Kp at 300 min,"OCTs [4]; male, Sprague-Dawley, rat, liver / blood, intravenous, ADR group, n = 6, *p < 0.05 vs Control",0.0691 ± 0.0444
same,concentration at 90 min,"OCTs [4]; male, Sprague-Dawley, rat, plasma, iv, ADR group, single rats, adrenalone 0.5 mL·200 g^−1 i.v. 0.5 h before Gastrodin 569 mg kg^−1, 90 min, read-out: Plasma concentration of GAS, 90min",762 µg/mL
same,concentration at 180 min,"OCTs [4]; male, Sprague-Dawley, rat, plasma, iv, ADR group, single rats, adrenalone i.v. 0.5 h before Gastrodin 569 mg kg^−1, 180 min, read-out: Plasma concentration of GAS, 180min",445 µg/mL
same,concentration at 300 min,"OCTs [4]; male, Sprague-Dawley, rat, plasma, iv, ADR group, single rats, adrenalone i.v. 0.5 h before Gastrodin 569 mg kg^−1, 300 min, read-out: Plasma concentration of GAS, 300min",394 µg/mL
same,Storage time with good stability,[5],at least 3 days
same,Pharmacokinetic profile,[6],non-linear
"CNCC(=O)c1ccc(O)c(O)c1 [ADR, adrenalone]",Hepatic transportation of OCTs in rats,"OCTs [7]; dose of 20 mg kg^−1, substrate metformin hydrochloride, HPLC",inhibited
CN(C)C(=N)N=C(N)N [metformin hydrochloride],Hepatic concentrations of the drug after OCTs inhibitor,"OCTs [7]; rats, OCTs inhibitor given",significant reduction
